Data set [1] deals with Mtb H37Ra strain (ATCC 25177). Kind of data set: Broth microdilution growth inhibition assay against Mtb H37Ra. The format is cell-based, Mycobacterium tuberculosis. The conditions noted are these: for MIC90: 90% inhibition of Mtb H37Ra growth; for antitubercular activity (in words): Mtb H37Ra. Background: Broth dilution looks for growth in wells or tubes with falling amounts of substance.

For data set [2], the system named is Mtb H37Ra. The conditions noted are these: cited from earlier work.
The nature of data set [3]: in vitro. As to conditions: human, CC50, BEAS-2B, 24 h exposure, resazurin; mean ± SD (n = 3). A general note: Alamar Blue is a resazurin reagent that responds to reducing activity.
A short description of data set [4]: Resazurin reduction cytotoxicity assay, IMR90. As to conditions: human, IMR-90 fetal lung fibroblasts.
Data set [5] in a line: Resazurin reduction cytotoxicity assay, HepG2. The conditions noted are these: human, HepG2 hepatocellular carcinoma cells.
Data set [6] can be described thus: Resazurin reduction cytotoxicity assay, Raw264.7. The conditions noted are these: mouse.
Data set [7] is described as follows: Resazurin reduction cytotoxicity assay, THP-1 macrophages. As to conditions: human.
The subject of data set [8] is Mycobacterium smegmatis. Also on record: method as in earlier work. As to conditions: ref 33 (Van Puyvelde et al.); cited from earlier work.
The subject of data set [9] is HepG2 cells. In words: Resazurin reduction cytotoxicity assay, HepG2. As to conditions: HepG2, 24 h exposure, resazurin; mean ± SD (n = 3).
Data set [10] relates to Mtb H37Rv. The conditions noted are these: cited from earlier work; for MIC90 / MIC (H37Rv): previously reported.
Setting [11] is: pure commercial compounds, 50% inhibition of Mtb H37Ra growth, mean ± SD.
The mark [12] stands for this setting: pure commercial compounds, mean ± SD.
[13] abbreviates: Mycobacterium tuberculosis, pure commercial compounds, 50% inhibition of Mtb H37Ra growth, mean ± SD, read-out: MIC50.
Setting [14] is: Mycobacterium tuberculosis, pure commercial compounds, mean ± SD, read-out: MIC90.
[15] abbreviates: pure commercial compounds, 50% inhibition of Mtb H37Ra growth, mean ± SD, read-out: MIC50.

≈ marks a conversion by molar mass, not a printed value. Entries after “also recorded” stand apart in the source; their conditions may differ. Where two headings read alike, the source gives them in different places.

One may read the MIC50 as an inhibitory concentration at the 50% level, which refers to growth in some studies and to a panel of isolates in others. What is called MIC90 is the lowest concentration that inhibits either 90% of growth or 90% of the strains tested, depending on the study. In the case of `NC[C@H]1O[C@H](O[C@H]2[C@H](O)[C@@H](O[C@H]3O[C@H](CO)[C@@H](O)[C@H](N)[C@H]3O)[C@H](N)C[C@@H]2N)[C@H](O)[C@@H](O)[C@@H]1O` [Kanamycin, reference compound], in data set [1] (setting [11]), the MIC50 turned out to be 3.3 ± 0.40 µM (≈ 1.6 µg/mL). In [1] (setting [12]), this compound returned an MIC90 of 7.5 ± 1.7 µM (≈ 3.63 µg/mL).

Consider `COc1ccc(-c2coc3cc(O)c(OC)cc3c2=O)cc1` [afrormosin], for which, in [2], the MIC90 is reported as 50 µg/mL (≈ 168 µM).

Take `COc1ccc(-c2oc3cc(OC)c(OC)c(O)c3c(=O)c2OC)cc1O` [Casticin]: the MIC50 in data set [1] (setting [13]) and in data set [1] (setting [15]) was greater than 200 µM in each case. Also, the MIC90 in data set [1] (setting [14]) is greater than 200 µM.

For the compound `C/C1=C\CC(C)(C)/C=C/C(=O)/C(C)=C/CC1` [Zerumbone], in data set [1], the “antitubercular activity (in words)” value was “very low to no activity; also recorded: inactive”. Also, the MIC50 in [1] (Mycobacterium tuberculosis) and in data set [1] (setting [15]) was greater than 200 µM each time. For the same compound, the MIC90 in data set [1] (setting [14]) is greater than 200 µM. This compound yielded a CC50 in [3] of 149 ± 43.2 µM. The CC50 at 24 h in [4] is 79.8 ± 48.7 µM; in data set [5], greater than 250 µM; in [6] (Raw264.7 macrophage cells), 44.5 ± 3.5 µM; in data set [7], 51.6 ± 31.6 µM.

As to `COc1ccc(-c2coc3cc(O)ccc3c2=O)cc1` [formononetin], in data set [2], the MIC90 is given as 25 µg/mL (≈ 93.2 µM).

Regarding `C=C[C@]1(C)C=C2[C@H](O)C[C@@H]3C(C)(CCC[C@@]3(C)CO)[C@H]2CC1` (stereo partly drawn) [8(14),15-sandaracopimaradiene-7α,18diol], the MIC90 in [8] is recorded as 12 µg/mL (≈ 39.4 µM).

Take `COc1cc2oc(-c3ccc(O)c(O)c3)cc(=O)c2c(O)c1OC` [Cirsiliol]: the values for the MIC50 in data set [1] (setting [13]) and in [1] (setting [11]) were 80.3 µM (≈ 26.5 µg/mL) and 80.3 ± 43 µM (≈ 26.5 µg/mL), respectively. The MIC90 in data set [1] (setting [14]) was greater than 200 µM; in data set [1] (pure commercial compounds, mean ± SD, read-out: MIC90) it was greater than 200 µM. Further, the CC50 in data set [3] was greater than 250 µM. Further, the CC50 at 24 h in data set [4] was 108 ± 44.1 µM; in [5] it was greater than 250 µM; in [6] (Raw264.7 macrophage cells), 71.2 ± 44.1 µM; in [7], 11.2 ± 2.7 µM.

Consider `C=Cc1c(C)c2cc3nc(c4c5[nH]c(cc6nc(cc1[nH]2)C(C)=C6CC)c(C)c5C(=O)[C@@H]4C(=O)OC)[C@@H](CCC(=O)O)[C@@H]3C` [Pheophorbide A], for which the MIC50 was 10.5 ± 5 µM (≈ 6.22 µg/mL) in data set [1] (setting [13]) and 10.5 µM (≈ 6.22 µg/mL) in [1] (setting [15]). The MIC90 in data set [1] (setting [14]) came out at 17 ± 7.6 µM (≈ 10.1 µg/mL). In addition, the values for the CC50 in data set [3] and in data set [9] were roughly 4.9 µM and “no cytotoxicity”, respectively. Besides, the CC50 at 24 h is roughly 11.5 µM in data set [4], greater than 84.3 µM in data set [5], 20.9 ± 6.5 µM in data set [6] (Raw264.7 macrophage cells) and 1.4 ± 0.8 µM in data set [7].

On to `CC(C)=CCC[C@](C)(O)[C@@H]1CC=C(C)CC1` [α-bisabolol], for which the MIC50 in data set [1] (Mycobacterium tuberculosis) and in data set [1] (setting [15]) was greater than 200 µM in each case. Moreover, the MIC90 in [1] (setting [14]) was greater than 200 µM. For the same compound, the CC50 in [3] is greater than 250 µM. Moreover, the CC50 at 24 h in data set [4] was greater than 250 µM; in [5] it was greater than 250 µM; in data set [6] (Raw264.7 macrophage cells) it was 174 ± 26.2 µM; in [7] (THP-1-derived macrophages (PMA-differentiated)), greater than 250 µM.

Consider `O=C1CC(c2ccc(O)cc2)Oc2cc(O)ccc21` (stereo not drawn) [liquitirigenin], for which the “MIC (H37Ra)” value in data set [2] (previously reported MIC90) is on record as 25 µg/mL (≈ 97.6 µM).

`CC[C@@H](CO)NCCN[C@@H](CC)CO` [Ethambutol, reference compound]: the MIC50 in data set [1] (setting [13]) was 10.3 ± 4 µM (≈ 2.1 µg/mL). In addition, in data set [1] (setting [14]), the MIC90 came to 17.3 ± 0.96 µM (≈ 3.53 µg/mL).

Take `O=c1cc(-c2ccc(O)c(O)c2)oc2cc(O)cc(O)c12` [Luteolin]: the “MIC90 / MIC (H37Rv)” value in [10] (Mtb H37Rv) is 78.12 µg/mL (≈ 273 µM).

For `C=C1CC[C@H]2O[C@]2(C)CC[C@@H]2[C@@H]1CC2(C)C` [Caryophyllene oxide], in data set [1], the “antitubercular activity (in words)” value was “very low to no activity; also recorded: inactive”. Also, the MIC50 in data set [1] (setting [13]) and in data set [1] (setting [15]) was greater than 200 µM throughout. Further, the MIC90 in [1] (setting [14]) is greater than 200 µM.

Regarding `O=c1cc(-c2ccc(O)cc2)oc2cc(O)cc(O)c12` [apigenin], the “MIC90 / MIC (H37Rv)” value in [10] (Mtb H37Rv) is recorded as 70 µg/mL (≈ 259 µM).

`CC1(C)C[C@H](O)C[C@@]2(C)OC(=O)C=C12` [Loliolide]: the “antitubercular activity (in words)” value in data set [1] was “inactive”. Also, the MIC50 in [1] (setting [13]) and in data set [1] (setting [15]) was greater than 200 µM each time. Further, the MIC90 in data set [1] (setting [14]) was greater than 200 µM.

As to `COc1c(O)cc2oc(-c3ccc(O)cc3)cc(=O)c2c1O` [Hispidulin], the results for the MIC50 in data set [1] (setting [13]) and in data set [1] (setting [11]) were 54.8 µM (≈ 16.5 µg/mL) and 54.8 ± 25.6 µM (≈ 16.5 µg/mL), respectively. Moreover, the MIC90 amounted to 162 µM (≈ 48.6 µg/mL) in [1] (setting [14]) and 162 ± 75 µM (≈ 48.6 µg/mL) in data set [1] (setting [12]). The CC50 in data set [3] was greater than 250 µM. For the same compound, the CC50 at 24 h in [6] was 227 ± 36.7 µM; in data set [7], 21.1 ± 14.5 µM.

`CC(C)C1=C(O)C(=O)C2=C(C=C[C@H]3C(C)(C)CCC[C@]23C)C1=O` [6,7-dehydroroyleanone]: the MIC90 in [10] (Mtb H37Rv, ref 10 (Baldin et al.)) is given as 31.2 µg/mL (≈ 99.2 µM).

Consider `COc1cc(C2c3c(cc(OC)c(O)c3OC)CC(CO)C2CO)cc(OC)c1O` (stereo not drawn) [Lyoniresinol], for which the “antitubercular activity (in words)” value in data set [1] is “inactive”. For the same compound, the MIC50 in data set [1] (setting [13]) and in data set [1] (setting [15]) was greater than 200 µM each time. For the same compound, the MIC90 in [1] (setting [14]) was greater than 200 µM.

In the case of `O=c1c(O)c(-c2ccc(O)c(O)c2)oc2cc(O)cc(O)c12` [Quercetin], the MIC90 in data set [10] (H37Rv) is 6.25 µg/mL (≈ 20.7 µM).

The values are drawn from article PMC12526154, “Bioactive Compounds Discovery from French Guiana Plant Extracts Through Antitubercular Screening and Molecular Networking” (Plants, 2025).
